According to paper PMC8907848 (Frontiers in Chemistry, 2022):
Where two headings read alike, the source gives them in different places.

Assays:
SARS-CoV M^pro = conditions: ref Arutyunova et al., 2021; cited from earlier work
FIPV M^pro [1] = biological target: T1, FIPV M^pro (Feline coronavirus, UniProt Q98VG9); assay: FRET-based cleavage assay with purified FIPV Mpro (Ki and IC50 determination); type: biochemical, FIPV WSU-79/1146
Method: A fluorescence resonance energy transfer (FRET)–based cleavage assay was performed using a synthetic peptide fluorescent substrate containing the cleavage site of FIPV M^pro [Abz-SVTLQ↓SG-Tyr (NO2)-R] as described previously ([Vuong et al., 2020]; [Vuong et al., 2021]). […] The enzymatic reactions using 1–500 μM of FRET substrate in activity buffer (25 mM Bis-Tris, 1 mM DTT, pH 7.0) were started with the addition of protease. For IC50 determination, 100 nM of FIPV M^pro was incubated with an inhibitor concentration range of 0.25 nM–100 µM in activity buffer. The reaction was started with 40 µM of FRET substrate. The fluorescence signal of the FRET peptide cleavage product was monitored at an emission wavelength of 420 nm with excitation at 320 nm, using a Cytation 5 Imaging Multi-Mode Reader (BioTek) for 7 min at 37°C. The kinetic data were analyzed using computer-fit calculation (Prism 9.0, GraphPad Software). […] The experiments were performed in triplicate.

SARS-CoV-2 M^pro = conditions: read-out: SARS-CoV-2 M^pro IC50; mean ± SEM, n = 3; ref Vuong et al. (2021); cited from earlier work
FIPV M^pro [2] = biological target: T1, FIPV M^pro; set-up: method as in Kim et al., 2012; conditions: ref Kim et al., 2012; cited from earlier work
FIP virus (FIPV) = tested on: FIP virus (FIPV); set-up: method as in Kim et al., 2016; Pedersen et al., 2018; conditions: experimentally induced and naturally occurring FIP; ref Kim et al., 2016; Pedersen et al., 2018; cited from earlier work
[3] = biological target: Feline infectious peritonitis virus main protease (FIPV M^pro, FIPV WSU-79/1146) (feline infectious peritonitis virus (FIPV WSU-79/1146)); assay: crystal structure; FIPV M^pro at 10 mg/ml incubated with 5x molar excess of GC373 or GC376 (4°C, 2 h), sitting drop, room temperature; GC376: 2.0 M ammonium sulfate, 0.1 M Bis-Tris pH 5.5; GC373: 0.2 M calcium chloride, 0.1 M MES, 20% PEG 6000, pH 6.0

T1 sequence (Q98VG9 2904-3205): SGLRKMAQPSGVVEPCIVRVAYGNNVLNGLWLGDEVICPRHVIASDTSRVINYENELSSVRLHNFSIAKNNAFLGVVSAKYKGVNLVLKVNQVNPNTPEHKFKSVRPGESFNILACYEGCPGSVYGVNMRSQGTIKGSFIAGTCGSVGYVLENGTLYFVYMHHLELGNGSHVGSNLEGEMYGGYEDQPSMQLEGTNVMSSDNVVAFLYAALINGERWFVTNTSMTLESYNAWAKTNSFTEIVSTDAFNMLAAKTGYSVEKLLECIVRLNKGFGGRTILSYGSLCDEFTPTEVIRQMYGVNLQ

Row | Molecule | IC50 (FIPV M^pro [1]) [µM] | IC50 (SARS-CoV-2 M^pro) [µM] | also measured
1 | CC(C)CC(NC(=O)OCc1ccccc1)C(=O)NC(C=O)CC1CCNC1=O (centres unmarked) [GC373] | – | – | Ki against SARS-CoV Mpro (in words) (SARS-CoV M^pro): nanomolar range
2 | O=C[C@H](C[C@@H]1CCNC1=O)NC(=O)[C@H](CC1CC1)NC(=O)OCc1ccccc1 [1a] | 0.1 ± 0.07 | – | –
3 | COc1cccc2[nH]c(C(=O)N[C@@H](CC3CC3)C(=O)N[C@@H](C[C@@H]3CCNC3=O)C(O)S(=O)(=O)O)cc12 (some centres unmarked) [2e] | 0.06 ± 0.02 | – | –
4 | CC(C)C[C@H](NC(=O)OCCc1cccc(Cl)c1)C(=O)N[C@H](C=O)C[C@@H]1CCNC1=O [1e] | 0.13 ± 0.02 | 0.15 ± 0.05 | –
5 | O=C(N[C@@H](CC1CC1)C(=O)N[C@@H](C[C@@H]1CCNC1=O)C(O)S(=O)(=O)O)OCCc1cccc(Cl)c1 (some centres unmarked) [2d] | 0.05 ± 0.02 | – | –
6 | CC(C)CC(NC(=O)OCc1ccccc1)C(=O)NC(CC1CCNC1=O)C(O)S(=O)(=O)O (centres unmarked) [GC376, reference compound] | – | – | IC50 (FIPV M^pro [1]; 100 nM FIPV Mpro, 40 µM FRET substrate, 37°C, mean ± SEM, n = 3, read-out: FIPV M^pro IC50): 0.13 ± 0.02 µM; Ki (FIPV M^pro [1]; read-out: Calculated Ki): 0.0021 µM; IC50 against FIPV Mpro (in words) (FIPV M^pro [2]): sub-micromolar; Effect on progression of FIP in cats (FIP virus (FIPV)): successful in reversing the progression
7 | Feline infectious peritonitis virus main protease (FIPV M^pro, FIPV WSU-79/1146) (enzyme) | – | – | stoichiometry N [3]: 2
8 | O=C(N[C@@H](CC1CC1)C(=O)N[C@@H](C[C@@H]1CCNC1=O)C(O)S(=O)(=O)O)OCc1cccc(F)c1 (some centres unmarked) [2c] | 0.03 ± 0.01 | 0.07 ± 0.01 | –
9 | CC(C)C[C@H](NC(=O)O[C@@H](C)c1ccccc1)C(=O)N[C@H](C=O)C[C@@H]1CCNC1=O [1g] | 0.43 ± 0.09 | 0.27 ± 0.09 | –
10 | CC(C)C[C@H](NC(=O)OCc1cccc(F)c1)C(=O)N[C@H](C=O)C[C@@H]1CCNC1=O [1d] | 0.07 ± 0.01 | 0.13 ± 0.04 | –
